Laboratory results as given in PubChem BioAssay (NCI).
“And” between values parts separate entries of the source, which are not always exact repeats. Identical values can stand only once.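 Dose response: 5 concentrations. Exposure: 48 h. Format: 96-well plates. Endpoint: linear interpolation; highest concentration if not reached. The concentration for 50% growth inhibition is given as GI50. TGI: concentration producing complete growth inhibition.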

How the values were obtained:
Assay in all cases: DTP human tumour cell line panel, 48 h
UO-31 renal = system: UO-31 renal
U251 CNS = system: U251 CNS
OVCAR-3 ovarian = system: OVCAR-3 ovarian
A549 NSCLC = system: A549 NSCLC
HT29 colon = system: HT29 colon
MDA-MB-435 = system: MDA-MB-435
HS 578T breast = system: HS 578T breast
DU-145 prostate = system: DU-145 prostate
T-47D breast = system: T-47D breast
MDA-MB-231 breast = system: MDA-MB-231 breast

Row | SMILES | TGI (UO-31 renal) | TGI (U251 CNS) | TGI (OVCAR-3 ovarian) | TGI (A549 NSCLC) | TGI (HT29 colon) | GI50 (MDA-MB-435) | TGI (MDA-MB-435) | GI50 (HS 578T breast) | GI50 (UO-31 renal) | GI50 (U251 CNS) | GI50 (DU-145 prostate) | TGI (DU-145 prostate) | GI50 (OVCAR-3 ovarian) | GI50 (A549 NSCLC) | GI50 (HT29 colon) | TGI (HS 578T breast) | TGI (T-47D breast) | TGI (MDA-MB-231 breast) | GI50 (MDA-MB-231 breast) | GI50 (T-47D breast)
1 | COc1cc2c(c(OC)c1OC)-c1ccc(SC)c(=O)cc1C(CC(=O)Oc1ccccc1F)C2 (configuration not stated) | > 7.5 µM | 0.108 µM | 0.0272 µM | > 7.5 µM | 0.0324 µM | – | – | – | – | – | – | – | – | – | – | – | – | – | – | –
2 | O=C(Nc1c(Cl)cc([N+](=O)[O-])cc1Cl)C(=O)C(C(=O)c1ccncc1)C1OC(=O)c2ccccc21 (configuration not stated) | > 100 µM | > 100 µM | > 100 µM | > 100 µM | > 100 µM | – | – | – | – | – | – | – | – | – | – | – | – | – | – | –
3 | Cc1c(C(=O)/C=C/c2ccc3c(c2)OCO3)[n+](=O)c2ccccc2n1[O-] | 97.4 µM | > 100 µM | 83.3 µM | > 100 µM | 56.4 µM | – | – | – | – | – | – | – | – | – | – | – | – | – | – | –
4 | Clc1ccc(/C=C/c2csnn2)cc1 | > 100 µM | > 100 µM | > 100 µM | > 100 µM | > 100 µM | – | – | – | – | – | – | – | – | – | – | – | – | – | – | –
5 | O=C(/C=N/O)Nc1cccc(Cl)c1I | 78.3 µM | > 100 µM | > 100 µM | > 100 µM | > 100 µM | – | – | – | – | – | – | – | – | – | – | – | – | – | – | –
6 | CNC(=O)N(CCCCC(NC(C)=O)C(=O)NCc1ccccc1)Cc1ccccc1 (configuration not stated) | > 100 µM | > 100 µM | > 100 µM | > 100 µM | > 100 µM | – | – | – | – | – | – | – | – | – | – | – | – | – | – | –
7 | COc1cc([C@H]2c3cc4c(cc3[C@H](NCc3ccc(F)cc3)C3COC(=O)[C@H]32)OCO4)cc(OC)c1O (some centres not stated) | 14.9 µM | 4.35 µM | 29.3 µM | – | 27 µM | – | – | – | – | – | – | – | – | – | – | – | – | – | – | –
8 | O=S1(=O)CS(=O)(=O)OCCCCCO1 | > 100 µM | > 100 µM | – | > 100 µM | > 100 µM | – | – | – | – | – | – | – | – | – | – | – | – | – | – | –
9 | CC[C@]1(O)C[C@@H]2CN(CCc3c([nH]c4ccccc34)[C@@](C(=O)OC)(c3cc4c(cc3OC)N(C)[C@H]3[C@@](O)(C(=O)OC)[C@H](OC(=O)CCCBr)[C@]5(CC)C=CCN6CC[C@]43[C@@H]65)C2)C1 | 6.55 µM | > 100 µM | < 0.0126 µM | > 100 µM | > 100 µM | < 0.01 µM | < 0.01 µM | < 0.0185 µM | 0.196 µM | 0.0334 µM | < 0.01 µM | 1.43 µM | < 0.01 µM | < 0.0166 µM | < 0.01 µM | – | – | – | – | –
10 | COc1cc2ccc(CC(=O)O)cc2cc1OC | > 100 µM | > 100 µM | > 100 µM | > 100 µM | > 100 µM | – | – | – | – | – | – | – | – | – | – | – | – | – | – | –
11 | Cc1ccccc1NC(=O)C(=O)CC(=O)c1sc(-n2nc(-c3ccccc3)cc2-c2ccccc2)nc1C | > 100 µM | > 100 µM | > 100 µM | > 100 µM | > 100 µM | – | – | – | – | – | – | – | – | – | – | – | – | – | – | –
12 | NC(=O)C1C(=O)Oc2cccnc21 (configuration not stated) | > 100 µM | > 100 µM | > 100 µM | > 100 µM | > 100 µM | – | – | – | – | – | – | – | – | – | – | – | – | – | – | –
13 | COc1cc(COC(=O)N(C)[C@@H](Cc2ccccc2)C(=O)O)c([N+](=O)[O-])cc1OC | > 100 µM | > 100 µM | > 100 µM | > 100 µM | > 100 µM | – | > 100 µM | – | – | – | – | > 100 µM | – | – | – | > 100 µM | > 100 µM | – | – | –
14 | Cc1ccc(/C=C2\CCCC(C(NO)c3ccc(C)cc3)C2=NO)cc1 (configuration not stated) | > 100 µM | > 100 µM | 43.7 µM | > 100 µM | 37.9 µM | – | – | – | – | – | – | – | – | – | – | – | – | – | – | –
15 | Cc1cn([C@H]2CN(O)C[C@@H](CO)O2)c(=O)[nH]c1=O | > 100 µM | > 100 µM | – | > 100 µM | – | – | > 100 µM | – | – | – | – | > 100 µM | – | – | – | > 100 µM | > 100 µM | > 100 µM | – | –
16 | CN(C)CCC(/C=C/c1ccccc1)=N\Nc1c(F)c(F)c(F)c(F)c1F | > 100 µM | > 100 µM | > 100 µM | > 100 µM | > 100 µM | – | – | – | – | – | – | – | – | – | – | – | – | – | – | –
17 | Nc1nc2c(ncn2C2OC(CO)C(O)C2O)c(=O)[nH]1 (configuration not stated) | > 100 µM and 204 µM | > 100 µM and 237 µM | 235 µM | > 100 µM and 170 µM | > 100 µM and 196 µM | > 100 µM | > 100 µM | – | > 100 µM | > 100 µM | – | – | – | > 100 µM and 15.8 µM | > 100 µM | – | > 100 µM | > 100 µM | > 100 µM | > 100 µM
18 | COC(=O)C1C(=O)NC2(C)CC1c1ccccc1O2 (configuration not stated) | > 100 µM | > 100 µM | > 10 µM | > 100 µM | > 100 µM | – | – | – | – | – | – | – | – | – | – | – | – | – | – | –
19 | Cc1ncc([N+](=O)[O-])n1CCOc1ccc(C(=O)/C=C/c2ccc(C(F)(F)F)cc2)cc1 | 2.87 µM | 3.08 µM | 5.7 µM | 8.5 µM | 4.23 µM | 3.56 µM | 13.9 µM | 5.2 µM | 1.48 µM | 1.51 µM | 3.56 µM | 11.9 µM | 2.37 µM | 2.42 µM | 1.99 µM | 33.3 µM | – | 15.5 µM | 3.53 µM | –
20 | O=C(CC/C(CC(=O)c1ccc(Cl)cc1)=N\O)Nc1cccc(Cl)c1 | > 100 µM | > 100 µM | > 100 µM | > 100 µM | > 100 µM | – | – | – | – | – | – | – | – | – | – | – | – | – | – | –
21 | CC1(O)CC2C(CC1SCc1ccccc1)C2(C)C (configuration not stated) | > 100 µM and 27.9 µM | 44.7 µM and 29.7 µM | 33.6 µM and 25.2 µM | > 100 µM and 31.1 µM | 49.1 µM and 29.9 µM | – | – | – | 31.2 µM and 14.5 µM | – | – | – | – | 40.9 µM and 17.4 µM | – | – | – | – | – | –
22 | CCOC(=O)c1cnc2c(ccc3ncccc32)c1OCC | > 100 µM | > 100 µM | > 100 µM | > 100 µM | > 100 µM | – | – | – | – | – | – | – | – | – | – | – | – | – | – | –
23 | Cc1cc(N(CCC#N)CCC#N)ccc1/C=C1N=C(/C=C\c2ccccc2)N(c2ccc(C(=O)O)cc2)C\1=O | > 100 µM | > 100 µM | > 100 µM | > 100 µM | > 100 µM | – | – | – | – | – | – | – | – | – | – | – | – | – | – | –
24 | NC(=O)N1N=C2c3ccccc3OC[C@H]2[C@@H]1c1ccccc1 | > 100 µM | 28.5 µM | > 76.3 µM | > 100 µM | 67.6 µM | – | – | – | – | – | – | – | – | – | – | – | – | – | – | –
25 | Nc1nc2c([nH]1)c1[nH]c3ccccc3c1c1[nH]c3ccccc3c21 | 22.9 µM | 14.3 µM | 25.7 µM | 33.4 µM | 17.4 µM | 9.73 µM | 22 µM | 20.4 µM | 11 µM | 3.99 µM | 13.5 µM | 26.4 µM | 12.6 µM | 17.1 µM | 5.5 µM | 53.9 µM | – | 16.9 µM | 4.39 µM | –
26 | CC1(C)O[C@@H](CCl)C[C@@H](C#N)O1 | > 100 µM | > 100 µM | > 100 µM | > 100 µM | > 100 µM | – | – | – | – | – | – | – | – | – | – | – | – | – | – | –
27 | CSc1ccc2c(c1)N(CCCN(C)C)c1ccccc1S2 | – | 27.1 µM | 27.2 µM | 30.2 µM | 21.1 µM | – | 17 µM | – | – | – | – | 30.1 µM | – | – | – | 28.7 µM | 25.9 µM | 26.3 µM | – | –
